The text below walks through data of patent publication US9708590B2, “Crystal structure of human α-N-acetylglucosaminidase” (Shire Human Genetic Therapies, Inc., priority 2010, dated 2017).

Each structure is given as a SMILES string.

The nature of data set [1]: Solubility of the activity-assay substrate in water. The data set is classed as physicochemical. The settings on record: required DMSO to be dissolved. Here is the method:
A 10 mM stock of substrate was prepared by dissolving 5 mg of 4-methylumbelliferyl-N-acetyl-α-D-glucosaminide in 250 μL of 100% DMSO first. Naglu activity assay reaction buffer was then added to bring the volume up to […]. This 10 mM Substrate stock was further diluted 10-fold with reaction buffer to make the 1 mM substrate solution. Un-used 10 mM substrate stock was stored in −80° C. for up to one month. Samples and controls were pre-diluted in reaction buffer. 10 μL of each pre-diluted sample/control was applied in duplicate wells on a black clear bottom 96 well plate. 10 μL of reaction buffer was added to two wells of the plate and served as reaction buffer control. 75 μL of 1 mM substrate was added to each well that contained 10 μL of sample/control. The plate was sealed with plate sealer and wrapped with aluminum foil. The plate was placed in 37° C. Jitterbug and incubated with shaking setting at #1 for 1 hour. Prior to the completion of incubation, standards were prepared by diluting the stock (1000 μM) of 4-methlyumbelliferyl sodium salt down to 25 μM, 12.5 μM, 6.25 μM, 3.12 μM, 1.56 μM, 0.78 μM, 0 μM with water. At the completion of incubation, 85 μL of each of the seven standards was loaded on the plate in duplicate. […] The plate was measured for fluorescence at 360/460 (Excitation/Emission) using a Molecular Devices SpectraMax Plus M2 plate reader.

The test system of data set [2] is MSP III-B derived fibroblasts. The settings on record: in vitro, Malinowska et al. (2009); cited from earlier work.

For the compound `CC(=O)N[C@H]1[C@@H](Oc2ccc3c(C)cc(=O)oc3c2)O[C@H](CO)[C@@H](O)[C@@H]1O` [4-methylumbelliferyl-N-acetyl-α-D-glucosaminide], in data set [1], the solubility in water result was “very low solubility in water”.
With `O=c1c(-c2ccc(O)cc2)coc2cc(O)cc(O)c12` [gensteine], the “effect on GAG synthesis” value in data set [2] is “inhibit GAG synthesis”.
